Source: patent US4355026A, “4-Demethoxy,11-deoxy anthracycline derivatives” (priority 1980, dated 1982)
In brackets after ≈: the same amount, converted by molar mass. Like-named read-outs stand apart in the source and are kept apart here.

Tests used:
[1] = tested on: Klebsiella pneumonia PCI 602; assay: MIC on nutrient agar medium; assay type: cell-based; details: Klebsiella pneumoniae, PCI602
Source text: (§1) The compounds of formula I provided by the present invention are also characterized by their antimicrobial activity. Table 3 summarizes the minimum inhibitory concentrations (MIC) of representative compounds of the present invention against various microorganisms on a nutrient agar medium.

[2] = tested on: Shigella flexneri 46 JS 11811; assay: MIC on nutrient agar medium; assay type: cell-based; details: 46JS11811
Source text: as §1

[3] = tested on: Escherichia coli NIHJ; assay: MIC on nutrient agar medium; assay type: cell-based
Source text: as §1

[4] = tested on: Bacillus megatherium APF; assay: MIC on nutrient agar medium; assay type: cell-based
Source text: as §1

[5] = tested on: Pseudomonas aeruginosa A3; assay: MIC on nutrient agar medium; assay type: cell-based
Source text: as §1

[6] = tested on: Staphylococcus aureus FDA 209; assay: MIC on nutrient agar medium; assay type: cell-based; details: FDA209
Source text: as §1

[7] = tested on: Bacillus cereus ATCC 10702; assay: MIC on nutrient agar medium; assay type: cell-based; details: ATCC10702
Source text: as §1

[8] = tested on: Microccus flavus FDA 16; assay: MIC on nutrient agar medium; assay type: cell-based
Source text: as §1

[9] = tested on: Corynebacterium bovis 1810; assay: MIC on nutrient agar medium; assay type: cell-based
Source text: as §1

[10] = tested on: Bacillus subtilis PCI 219; assay: MIC on nutrient agar medium; assay type: cell-based; details: PCI219
Source text: as §1

[11] = tested on: Bacillus subtilis NRRB- 558; assay: MIC on nutrient agar medium; assay type: cell-based; details: NRRB558
Source text: as §1

[12] = tested on: Staphylococcus aureus smith; assay: MIC on nutrient agar medium; assay type: cell-based
Source text: as §1

[13] = tested on: Mycobacterium smegmatis ATCC 607; assay: MIC on nutrient agar medium; assay type: cell-based; details: Mycolicibacterium smegmatis, ATCC607
Source text: as §1

[14] = tested on: Candida albicans 3147; assay: MIC on nutrient agar medium; assay type: cell-based
Source text: as §1

[15] = tested on: Salmonella typhi T - 63; assay: MIC on nutrient agar medium; assay type: cell-based; details: Salmonella enterica
Source text: as §1

[16] = tested on: Sarcina lutea PCI 1001; assay: MIC on nutrient agar medium; assay type: cell-based; details: Micrococcus luteus, PCI1001
Source text: as §1

[17] = tested on: Microccus lysodeikticus IFQ 3333; assay: MIC on nutrient agar medium; assay type: cell-based
Source text: as §1

[18] = tested on: L1210 leukemia cells; assay: Inhibitory effect on growth of L1210 cultivated leukemic cells of mice; assay type: cell-based; details: Mus musculus, RPMI 1640, 20% calf serum, 37° C.
Description: (§2) A. Inhibitory Effect on Growth, DNA Synthesis and RNA Synthesis of L1210 Cultivated Leukemic Cells of Mice
For example, L1210 cells were inoculated in a concentration of 5×10^4 cells/ml in an RPMI 1640 culture medium (Roswell Park Memorial Institute 1640) containing 20% calf serum and, simultaneously, representative compounds of the present invention were added in a concentration of 0.1 and 0.5 μg/ml. The cells were cultivated in a CO2 generator at 37° C. The 50% growth inhibitory concentration with respect to a control group was then determined.

[19] = tested on: L1210 leukemia cells, DNA synthesis; assay: Inhibition of DNA synthesis (14C-thymidine incorporation) of L1210 cultivated leukemic cells; assay type: cell-based; details: Mus musculus, L1210, 1 h, 14C-thymidine, 60 minutes, 37° C.
Description: as §2
(§3) Separately, the above L1210 cultivated cells were suspended in a concentration of 5×10^5 cells/ml in an RPMI 1640 medium containing 10% calf serum and cultivated for 1 to 2 hours in a CO2 incubator at 37° C. Then, representative test compounds were added in various concentrations, and 15 minutes later, ^14 C-uridine (0.05 μCi/ml) or ^14 C-thymidine (0.05 μCi/ml) were added. The cells were incubated at 37° C. for 60 minutes. A 10% aqueous trichloroacetic acid solution was added to the incubation medium to stop the reaction and simultaneously precipitate acid-insoluble matter. The acid-insoluble matter was washed three times with a 5 to 10% aqueous solution of trichloroacetic acid and then dissolved in formic acid. The radioactivity of the acid-insoluble matter was measured. From the ratio of incorporated radiation to that of a control group, the concentrations which inhibited radiation by 10%, 50% and 90% respectively were measured.

[20] = tested on: L1210 leukemia cells, RNA synthesis; assay: Inhibition of RNA synthesis (14C-uridine incorporation) of L1210 cultivated leukemic cells; assay type: cell-based; details: Mus musculus, L1210, 1 h, 14C-uridine, 60 minutes, 37° C.
Description: as §2, §3

[21] = tested on: L1210 leukemia cells; assay: Antitumor activity on CDFI mouse leukemia induced by mouse L1210 leukemia cells; assay type: in vivo, CDFI mice; design: key to Toxicity: *: Toxicity-
Description: B. Antitumor Activity on CDFI Mouse Leukemia Induced by Mouse L1210 Leukemia cells
L1210 leukemia cells of mice were intraperitoneally transplanted in an amount of 1×10^5 cells/mouse in CDFI mice. Starting 24 hours after the transplantation, each of the test compounds was intraperitoneally administered to the mice for 10 consecutive days. the survival rate (T/C, %) was calculated in comparison with a control group (to which physiological saline was administered).

[22] = 2.5 mg/kg/day, intraperitoneal, 10 consecutive days

For `C[C@@H]1O[C@@H](O[C@H]2C[C@](O)(C(=O)CO)Cc3cc4c(c(O)c32)C(=O)c2ccccc2C4=O)C[C@H](N)[C@@H]1O` (single isomer, unassigned; isomer 4) [4-Demethoxy-11-deoxy-adriamycin (7S,9S,1'α)isomer, 4-Demethoxy-11-deoxyadriamycin], the MIC [1] was over 100 µg/mL, the MIC [2] was over 100 µg/mL and the MIC [3] was over 100 µg/mL. For the same compound, the MIC [4] was 12.5 µg/mL (≈ 25.1 µM), the MIC [5] was over 100 µg/mL and the MIC [6] was 100 µg/mL (≈ 201 µM). The MIC [7] was 25 µg/mL (≈ 50.3 µM), the MIC [8] was 50 µg/mL (≈ 101 µM) and the MIC [9] was 100 µg/mL (≈ 201 µM). It also gave an MIC [10] of 12.5 µg/mL (≈ 25.1 µM), an MIC [11] of 12.5 µg/mL (≈ 25.1 µM) and an MIC [12] of 12.5 µg/mL (≈ 25.1 µM). The MIC [13] was 12.5 µg/mL (≈ 25.1 µM), the MIC [14] was over 100 µg/mL and the MIC [15] was over 100 µg/mL. The MIC [16] was 100 µg/mL (≈ 201 µM), the MIC [17] was 50 µg/mL (≈ 101 µM) and the IC50 ([18]; L1210, 24 h, 1 day later, read-out: IC50 growth, 1 day later) was 0.07 µg/mL (≈ 0.141 µM). The IC50 ([18]; L1210, 48 h, 2 days later, read-out: IC50 growth, 2 days later) was 0.03 µg/mL (≈ 0.0603 µM), the IC50 ([19]; read-out: IC50 DNA synthesis) was 0.64 µg/mL (≈ 1.29 µM) and the IC90 ([19]; 90% inhibition, read-out: IC90 DNA synthesis) was 5.6 µg/mL (≈ 11.3 µM). The IC50 ([20]; read-out: IC50 RNA synthesis) was 0.8 µg/mL (≈ 1.61 µM), the IC90 ([20]; 90% inhibition, read-out: IC90 RNA synthesis) was 4.6 µg/mL (≈ 9.25 µM) and the “Survival rate (T/C, %)” value ([21]; 0.15 mg/kg/day, intraperitoneal, 10 consecutive days) was 135%. For the same compound, the “Survival rate (T/C, %)” value ([21]; 0.3 mg/kg/day, intraperitoneal, 10 consecutive days) was 162%, the “Survival rate (T/C, %)” value ([21]; 0.6 mg/kg/day, intraperitoneal, 10 consecutive days) was 184% and the “Survival rate (T/C, %)” value ([21]; 1.25 mg/kg/day, intraperitoneal, 10 consecutive days) was 308%. For the same compound, the “Survival rate (T/C, %)” value [21, 22] was 177%, the “Toxicity” value [21, 22] was “*” and the “antitumor activity on experimental animal tumors (in words)” value ([21]; experimental animal tumors) was “particularly noteworthy”.
